Assay results reported in US12319664B2, “Herbicidally active 3-phenylisoxazoline-5-carboxamides of cyclopentenylcarboxylic acid derivatives” (Bayer Aktiengesellschaft, priority 2018, dated 2025).

Columns and labels:
[1] = tested on: HORMU; assay: Post-emergence herbicidal action against HORMU; format: in vivo, Hordeum murinum; conditions: application rate 80 g/ha
How it was run: (§1)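 Visual scoring, about three weeks after a post-emergence spray, compares treated plants with untreated controls on a 0–100% scale. Spraying used WP or EC preparations with 0.5% additive at 600 l/ha on one-leaf-stage plants grown in sandy loam.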

[2] = tested on: STEME; assay: Post-emergence herbicidal action against STEME; format: in vivo, Stellaria media; conditions: application rate 80 g/ha, rated visually about 3 weeks after treatment
How it was run: as §1

[3] = tested on: ABUTH; assay: Post-emergence herbicidal action against ABUTH; format: in vivo, Abutilon theophrasti; conditions: application rate 80 g/ha, rated visually about 3 weeks after treatment
How it was run: as §1

[4] = tested on: POLCO; assay: Post-emergence herbicidal action against POLCO; format: in vivo, Polygonum convolvulus; conditions: application rate 80 g/ha, rated visually about 3 weeks after treatment
How it was run: as §1

[5] = tested on: VERPE; assay: Post-emergence herbicidal action against VERPE; format: in vivo, Veronica persica; conditions: application rate 80 g/ha
How it was run: as §1

[6] = tested on: PHBPU; assay: Post-emergence herbicidal action against PHBPU; format: in vivo, Pharbitis purpurea; conditions: application rate 80 g/ha, rated visually about 3 weeks after treatment
How it was run: as §1

[7] = tested on: VIOTR; assay: Post-emergence herbicidal action against VIOTR; format: in vivo, Viola tricolor; conditions: application rate 80 g/ha, rated visually about 3 weeks after treatment
Method: [table] 2. Post-emergence herbicidal action against harmful plants and crop plant compatibility Seeds of monocotyledonous and dicotyledonous weeds and crop plants are placed in sandy loam in plastic or wood-fibre pots, covered with soil and cultivated in a greenhouse under controlled growth conditions. 2 to 3 weeks after sowing, the test plants are treated at the one-leaf stage. The compounds of the invention, formulated in the form of wettable powders (WP) or as emulsion concentrates (EC), are then sprayed onto the green parts of the plants as aqueous suspension or emulsion with addition of 0.5% additive at a water application rate of 600 l/ha (converted). After the test plants have been kept in the greenhouse under optimum growth conditions for about 3 weeks, the activity of the preparations is rated visually in comparison to untreated controls. For example, 100% activity=the plants have died, 0% activity=like control plants.

[8] = tested on: ALOMY; assay: Post-emergence herbicidal action against ALOMY; format: in vivo, Alopecurus myosuroides; conditions: application rate 80 g/ha, rated visually after about 3 weeks
How it was run: as §1

[9] = tested on: LOLRI; assay: Post-emergence herbicidal action against LOLRI; format: in vivo, Lolium rigidum; conditions: application rate 80 g/ha, rated visually after about 3 weeks
How it was run: as §1

[10] = tested on: ECHCG; assay: Post-emergence herbicidal action against ECHCG; format: in vivo, Echinochloa crus-galli; conditions: application rate 80 g/ha, rated visually after about 3 weeks
How it was run: as §1

[11] = tested on: SETVI; assay: Post-emergence herbicidal action against SETVI; format: in vivo, Setaria viridis; conditions: application rate 80 g/ha, rated visually after about 3 weeks
How it was run: as §1

[12] = tested on: AMARE; assay: Post-emergence herbicidal action against AMARE; format: in vivo, Amaranthus retroflexus; conditions: application rate 80 g/ha, rated visually about 3 weeks after treatment
How it was run: as §1

[13] = tested on: AVEFA; assay: Post-emergence herbicidal action against AVEFA; format: in vivo, Avena fatua; conditions: application rate 80 g/ha, rated visually after about 3 weeks
How it was run: as §1

Row | SMILES | Herbicidal action against [%] HORMU [1] [%] | Herbicidal action against [%] STEME [2] [%] | Herbicidal action against [%] ABUTH [3] [%] | Herbicidal action against [%] POLCO [4] [%] | Herbicidal action against [%] VERPE [5] [%] | Herbicidal action against [%] PHBPU [6] [%] | Herbicidal action against [%] VIOTR [7] [%] | Herbicidal action against [%] ALOMY [8] [%] | Herbicidal action against [%] LOLRI [9] [%] | Herbicidal action against [%] ECHCG [10] [%] | Herbicidal action against [%] SETVI [11] [%] | Herbicidal action against [%] AMARE [12] [%] | Herbicidal action against [%] AVEFA [13] [%]
1 | CC1(C(=O)NC2C=CC(C(=O)O)C2)CC(c2cc(F)cc(C#N)c2)=NO1 (mixture of isomers) [Example I-075] | 100 | 90 | 80 | 90 | 90 | 90 | 90 | 100 | 100 | 90 | 80 | 90 | 
2 | COCCOC(=O)C1C=CC(NC(=O)C2(C)CC(c3cc(F)cc(C#N)c3)=NO2)C1 (mixture of isomers) [Example I-082] | 100 | 90 | 90 | 90 | 90 | 90 | 90 | 100 | 100 | 90 | 90 | 90 | 100
3 | CC1(C(=O)NC2C=CC(C(=O)OCCCl)C2)CC(c2cc(F)cc(C#N)c2)=NO1 (mixture of isomers) [Example I-083] | 100 | 90 | 90 | 90 | 90 | 90 | 90 | 100 | 100 | 90 | 80 | 90 | 100
4 | COC(=O)C1C=CC(NC(=O)C2(C)CC(c3cc(F)cc(C#N)c3)=NO2)C1 (mixture of isomers) [Example I-084] | 100 | 100 | 90 | 90 | 90 | 90 | 90 | 100 | 100 | 90 | 90 | 90 | 100
5 | N#Cc1cccc(C2=NOC(C(=O)NC3C=CC(C(=O)O)C3)(C(F)(F)F)C2)c1 (mixture of isomers) [Example I-085] | 100 | 80 | 90 | 80 | 90 | 90 | 80 | 90 | 100 | 90 | 80 | 90 | 100
6 | COC(=O)C1C=CC(NC(=O)C2(C(F)(F)F)CC(c3cccc(C#N)c3)=NO2)C1 (mixture of isomers) [Example I-087] | 100 | 90 | 90 | 90 | 90 | 90 | 90 | 100 | 100 | 80 | 80 | 90 | 100
